Read-outs that look alike come from different tables or passages of the source.
Tested on: E. coli BW25113
Experiment: MIC, 2-fold broth dilution, E. coli BW25113
Format: cell-based, Escherichia coli
Conditions: E. coli BW25113; for MIC: Escherichia coli
[1] = asterisk in column >50, read-out: MIC, μM >50
[2] = asterisk in column 10-50, read-out: MIC, μM 10-50

Row | Molecule | MIC [1] | also measured
1 | 1,1′-((([1,1′-biphenyl]-4,4′-dicarbonyl)bis(azanediyl))bis(2-bromo-4,1-phenylene))bis(1-methylpiperidin-1-ium) [Example 88] |  | MIC, μM 1-10 (asterisk in column 1-10): * (1-10)
2 | 4,4′-(([1,1′-biphenyl]-4,4′-dicarbonyl)bis(azanediyl))bis(1,2-dimethylpyridin-1-ium) [Example 34] |  | MIC, μM >50 (asterisk in column >50): * (>50)
3 | 4,4′-(([1,1′-biphenyl]-4,4′-dicarbonyl)bis(azanediyl))bis(3-hydroxy-N,N,N-trimethylbenzenaminium) [Example 57] |  | MIC, μM >50 (asterisk in column >50): * (>50)
4 | O=C(Nc1ccncc1)c1ccc(C(=O)Nc2ccncc2)cc1 [Example 1, N^1,N^4-di(pyridin-4-yl)terephthalamide] | > 50 µM | 
5 | C[n+]1ccc(NC(=O)c2ccc(C(=O)Nc3cc[n+](C)cc3)cc2)cc1 [Example 2, 4,4′-(terephthaloylbis(azanediyl))bis(1-methylpyridin-1-ium)] | > 50 µM | 
6 | O=C(Nc1ccncc1)c1ccc2cc(C(=O)Nc3ccncc3)ccc2c1 [Example 3, N^2,N^6-di(pyridin-4-yl)naphthalene-2,6-dicarboxamide] | > 50 µM | 
7 | C[n+]1ccc(NC(=O)c2ccc3cc(C(=O)Nc4cc[n+](C)cc4)ccc3c2)cc1 [Example 4, 4,4′-((naphthalene-2,6-dicarbonyl)bis(azanediyl))bis(1-methylpyridin-1-ium)] | > 50 µM | 
8 | O=C(Nc1ccncc1)[C@H]1CC[C@H](C(=O)Nc2ccncc2)CC1 [Example 5, (E)-N^1,N^4-di(pyridin-4-yl)cyclohexane-1,4-dicarboxamide] | > 50 µM | 
9 | C[n+]1ccc(NC(=O)[C@H]2CC[C@H](C(=O)Nc3cc[n+](C)cc3)CC2)cc1 [Example 6, 4,4′-((E)-cyclohexanedicarbonylbis(azanediyl))bis(1-methylpyridin-1-ium)] | > 50 µM | 
10 | O=C(Nc1ccncc1)c1ccc(-c2ccc(C(=O)Nc3ccncc3)cc2)cc1 [Example 7, N^4,N^4′-di(pyridin-4-yl)-[1,1′-biphenyl]-4,4′-dicarboxamide] | > 50 µM | 
11 | C[n+]1ccc(NC(=O)c2ccc(-c3ccc(C(=O)Nc4cc[n+](C)cc4)cc3)cc2)cc1 [Example 8] |  | MIC [2]: 10 to 50 µM
12 | O=C(Nc1ccc(Nc2ccncc2)cc1)c1ccc(C(=O)Nc2ccc(Nc3ccncc3)cc2)cc1 [Example 9, N^1,N^4-bis(4-(pyridin-4-ylamino)phenyl)terephthalamide] | > 50 µM | 
13 | O=C(Nc1ccc(Nc2ccccn2)cc1)c1ccc(C(=O)Nc2ccc(Nc3ccccn3)cc2)cc1 [Example 10, N^1,N^4-bis(4-(pyridin-2-ylamino)phenyl)terephthalamide] | > 50 µM | 
14 | O=C(Nc1ccc(Oc2ccncc2)cc1)c1ccc(C(=O)Nc2ccc(Oc3ccncc3)cc2)cc1 [Example 11, N^1,N^4-bis(4-(pyridin-4-yloxy)phenyl)terephthalamide] | > 50 µM | 
15 | O=C(Nc1ccc(Cc2ccncc2)cc1)c1ccc(C(=O)Nc2ccc(Cc3ccncc3)cc2)cc1 [Example 12, N^1,N^4-bis(4-(pyridin-4-ylmethyl)phenyl)terephthalamide] | > 50 µM | 
16 | C[n+]1ccc(Oc2ccc(NC(=O)c3ccc(C(=O)Nc4ccc(Oc5cc[n+](C)cc5)cc4)cc3)cc2)cc1 [Example 13, 4,4′-(((terephthaloylbis(azanediyl))bis(4,1-phenylene))bis(oxy))bis(1-methylpyridin-1-ium)] |  | MIC [2]: 10 to 50 µM

Row | Molecule | MIC [1] | also measured
17 | C[n+]1ccccc1Nc1ccc(NC(=O)c2ccc(C(=O)Nc3ccc(Nc4cccc[n+]4C)cc3)cc2)cc1 [Example 14, 2,2′-(((terephthaloylbis(azanediyl))bis(4,1-phenylene))bis(azanediyl))bis(1-methylpyridin-1-ium)] | > 50 µM | 
18 | O=C(Nc1ccc(Nc2ccncc2)cc1)c1ccc(-c2ccccc2)cc1 [Example 15, N-(4-(pyridin-4-ylamino)phenyl)-[1,1′-biphenyl]-4-carboxamide] | > 50 µM | 
19 | O=C(Nc1ccc(Nc2ccncc2)cc1)c1ccc(-c2ccc(C(=O)Nc3ccc(Nc4ccncc4)cc3)cc2)cc1 [Example 16, N^4,N^4′-bis(4-(pyridin-4-ylamino)phenyl)-[1,1′-biphenyl]-4,4′-dicarboxamide] | > 50 µM | 
20 | C[n+]1ccc(Nc2ccc(NC(=O)c3ccc(-c4ccccc4)cc3)cc2)cc1 [Example 18, 4-((4-([1,1′-biphenyl]-4-ylcarboxamido)phenyl)amino)-1-methylpyridin-1-ium] | > 50 µM | 
21 | O=C(Nc1ccc(Nc2ccncc2)cc1)c1ccc(C(=O)Nc2ccc(Nc3ccncc3)cc2)c(Cl)c1 [Example 19, 2-chloro-N^1,N^4-bis(4-(pyridin-4-ylamino)phenyl)terephthalamide] | > 50 µM | 
22 | O=C(Nc1ccc(Nc2ccncc2)cc1)c1ccc2cc(C(=O)Nc3ccc(Nc4ccncc4)cc3)ccc2c1 [Example 21, N^2,N^6-bis(4-(pyridin-4-ylamino)phenyl)naphthalene-2,6-dicarboxamide] | > 50 µM | 
23 | CN(C)c1ccc(NC(=O)c2ccc(-c3ccc(C(=O)Nc4ccc(N(C)C)cc4)cc3)cc2)cc1 [Example 22, N^4,N^4′-bis(4-(dimethylamino)phenyl)-[1,1′-biphenyl]-4,4′-dicarboxamide] | > 50 µM | 
24 | C[N+](C)(C)c1ccc(NC(=O)c2ccc(-c3ccc(C(=O)Nc4ccc([N+](C)(C)C)cc4)cc3)cc2)cc1 [Example 23, 4,4′-(([1,1′-biphenyl]-4,4′-dicarbonyl)bis(azanediyl))bis(N,N,N-trimethylbenzenaminium)] |  | MIC [2]: 10 to 50 µM
25 | O=C(Nc1ccc(Nc2ccncc2)cc1)c1ccc(C(=O)Nc2ccc(Nc3ccncc3)cc2)c([N+](=O)[O-])c1 [Example 24, 2-nitro-N^1,N^4-bis(4-(pyridin-4-ylamino)phenyl)terephthalamide] | > 50 µM | 
26 | O=S(=O)(Nc1ccncc1)c1ccc(-c2ccc(S(=O)(=O)Nc3ccncc3)cc2)cc1 [Example 26, N^4,N^4′-di(pyridin-4-yl)-[1,1′-biphenyl]-4,4′-disulfonamide] | > 50 µM | 
27 | Cc1cc(NC(=O)c2ccc(-c3ccc(C(=O)Nc4ccnc(C)c4)cc3)cc2)ccn1 [Example 27, N^4,N^4′-bis(2-methylpyridin-4-yl)-[1,1′-biphenyl]-4,4′-dicarboxamide] | > 50 µM | 
28 | Cc1cnccc1NC(=O)c1ccc(-c2ccc(C(=O)Nc3ccncc3C)cc2)cc1 [Example 28, N^4,N^4′-bis(3-methylpyridin-4-yl)-[1,1′-biphenyl]-4,4′-dicarboxamide] | > 50 µM | 
29 | Cc1cc(NC(=O)c2ccc(-c3ccc(C(=O)Nc4cc[n+](C)c(C)c4)cc3)cc2)cc[n+]1C [Example 29, 4,4′-(([1,1′-biphenyl]-4,4′-dicarbonyl)bis(azanediyl))bis(1,2-dimethylpyridin-1-ium)] |  | MIC [2]: 10 to 50 µM
30 | COc1cc(N(C)C)ccc1NC(=O)c1ccc(-c2ccc(C(=O)Nc3ccc(N(C)C)cc3OC)cc2)cc1 [Example 31, N^4,N^4′-bis(4-(dimethylamino)-2-methoxyphenyl)-[1,1′-biphenyl]-4,4′-dicarboxamide] | > 50 µM | 
31 | COc1cc([N+](C)(C)C)ccc1NC(=O)c1ccc(-c2ccc(C(=O)Nc3ccc([N+](C)(C)C)cc3OC)cc2)cc1 [Example 32] | > 50 µM | 
32 | COc1cc(NC(=O)c2ccc(-c3ccc(C(=O)Nc4ccc(N(C)C)c(OC)c4)cc3)cc2)ccc1N(C)C [Example 33, N^4,N^4′-bis(4-(dimethylamino)-3-methoxyphenyl)-[1,1′-biphenyl]-4,4′-dicarboxamide] | > 50 µM | 

— patent publication US20240116857A1 (St. Louis University, priority 2022, published 2024)
